Results taken from paper PMC9046217, “L-tyrosine-bound ThiH structure reveals C–C bond break differences within radical SAM aromatic amino acid lyases” (Nature Communications, 2022).

Key:
[1] = target: T1, TcThiH (2-iminoacetate synthase ThiH) (Thermosinus carboxydivorans, UniProt A1HPQ5); experiment: X-ray crystal structure, […] Å; type: binding; details: with L-tyrosine, 5'-deoxyadenosine; bound to the [4Fe-4S] cluster; pH 6.5, anaerobic; SAM cleavage product mimic
T1 construct: gene TcarDRAFT_1903; full length, N-terminal Strep-tag kept (MWSHPQFEKA-SGTFYDVIEDYRHFDF...YKDWQAL, 377 residues printed; printed DNA encodes a His6 tag instead); E. coli BL21(DE3) with isc operon and metK; [4Fe-4S] reconstituted; monomer

[2] = target: 2-iminoacetate synthase ThiH from Thermosinus carboxydivorans (Thermosinus carboxydivorans); experiment: SEC; preparative gel filtration, HiLoad 16/600 S200 prep-grade column, buffer B (50 mM Tris pH 8, 100 mM NaCl), anaerobic

T1 sequence (A1HPQ5 entry or part of it): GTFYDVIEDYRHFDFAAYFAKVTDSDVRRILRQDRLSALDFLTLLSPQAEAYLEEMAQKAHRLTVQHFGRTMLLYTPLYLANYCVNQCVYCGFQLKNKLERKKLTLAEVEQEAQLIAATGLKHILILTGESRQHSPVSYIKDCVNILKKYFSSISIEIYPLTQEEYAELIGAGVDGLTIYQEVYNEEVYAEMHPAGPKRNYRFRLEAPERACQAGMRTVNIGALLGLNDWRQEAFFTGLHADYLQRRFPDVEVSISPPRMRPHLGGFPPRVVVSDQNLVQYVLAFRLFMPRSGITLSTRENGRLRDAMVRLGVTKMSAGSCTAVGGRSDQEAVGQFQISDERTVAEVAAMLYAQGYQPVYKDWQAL

Row | Compound | X-ray crystal structure, 1.27 Å [1] | stoichiometry N [2]
1 | CSCC[C@H](N)C(=O)O [L-methionine] | L-methionine bound to the radical SAM [Fe4S4]-cluster and L-tyrosine (Fig. 2b) | 
2 | 2-iminoacetate synthase ThiH from Thermosinus carboxydivorans (enzyme) |  | 2
